# Entries after “also recorded” stand apart in the source; their conditions may differ.
# Assays:
# [1] = biological target: DPP-IV (Homo sapiens, UniProt P27487); assay: In vitro plasma stability of GLP-1 peptides secreted from human cells; conditions: cell culture supernatant, human lymphocyte enriched plasma, 37° C., 3 or additionally 6 and 9 hours
# [2] = tested on: Rin-5F cells; assay: Anti-apoptotic efficacy, cycloheximid-induced apoptosis; type: cell-based, rat; conditions: 24 hours
# Protocol: 40.000 Rin-5F cells were seeded per 96 well and cultivated for 2 days in RPMI supplemented with 1% L-Glutamin and 10% fetal calf serum. […] After 24 hours cell viability is quantified using AlamarBlue.
# [3] = tested on: patients with AMI and severe systolic dysfunction; conditions: GLP-1 infusion added to standard therapy; cited from earlier work
# DPP-IV, sequence (P27487 whole entry): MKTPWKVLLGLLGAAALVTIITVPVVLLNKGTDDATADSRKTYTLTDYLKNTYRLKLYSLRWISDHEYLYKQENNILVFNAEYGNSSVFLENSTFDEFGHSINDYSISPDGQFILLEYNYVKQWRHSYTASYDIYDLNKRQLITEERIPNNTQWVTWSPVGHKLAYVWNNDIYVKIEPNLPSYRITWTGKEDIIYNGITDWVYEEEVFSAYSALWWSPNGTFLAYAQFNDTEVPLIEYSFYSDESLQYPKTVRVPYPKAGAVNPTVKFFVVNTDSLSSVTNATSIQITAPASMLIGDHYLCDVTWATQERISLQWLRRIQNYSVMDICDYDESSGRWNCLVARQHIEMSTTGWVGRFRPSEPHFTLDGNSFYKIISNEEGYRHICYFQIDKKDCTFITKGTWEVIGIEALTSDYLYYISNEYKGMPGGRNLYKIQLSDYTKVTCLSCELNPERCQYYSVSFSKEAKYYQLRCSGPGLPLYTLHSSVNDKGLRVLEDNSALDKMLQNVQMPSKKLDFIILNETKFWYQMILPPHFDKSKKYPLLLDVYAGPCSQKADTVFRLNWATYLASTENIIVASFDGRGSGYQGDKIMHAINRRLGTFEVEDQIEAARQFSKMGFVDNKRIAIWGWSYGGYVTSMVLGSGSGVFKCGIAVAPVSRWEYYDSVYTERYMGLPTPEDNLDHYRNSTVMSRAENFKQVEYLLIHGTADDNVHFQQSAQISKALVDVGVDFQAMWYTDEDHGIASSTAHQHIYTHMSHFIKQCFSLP
substance,measurement,setting,value
GLP1(7-37)-IP2-GLP1(7-37) [construct #217],stability to DPP-IV degradation in plasma (active GLP-1 ELISA),[1],more resistant to degradation; also recorded: nearly fully stabilized to DPP-IV degradation
GLP-1(7-37)-IP2-GLP-1(7-37) [CM1],cell viability,"[2]; CHX 10 μg/ml and 100 μg/ml, different concentrations of CM1",significant (p<0.01) increase of cell viability
same,"anti-apoptotic effect (cell viability, AlamarBlue)","[2]; cycloheximid, serum-free, 1 nM CM1, p<0.01",significant anti-apoptotic effect
GLP-1(7-37)-IP2-extended with 11 AA [construct #317],stability to DPP-IV degradation in plasma (active GLP-1 ELISA),[1],more resistant to degradation
"Glucagon Like Peptide-1 (HAEGTFTSDVSSYLEGQAAKEFIAWLVKGRG) [GLP-1, naturally occurring incretin, infused in literature studies]",regional and global LV function,[3],improved regional and global LV function
